Measurements as given in patent US20250382298A1, “NITROGEN-CONTAINING COMPOUND AND USE THEREOF” (SUZHOU GENHOUSE BIO CO., LTD., priority 2022, published 2025).
Like-named read-outs stand apart in the source and are kept apart here.

What was measured:
[1] = test system: OVCAR3 cells; test: Detection of OVCAR3 cell proliferation activity by CTG method; assay type: cell-based; details: Homo sapiens, OVCAR-3, 168 h, CellTiter-Glo, 7 days
Description: (§1) This assay can be used to examine the potency of compounds in inhibiting the proliferation of tumor cells (OVCAR3, HT-29, BT-549, HCT-116). A lower IC50 value indicates high potency of the compound as a KIF18A inhibitor in the following assay setup,
1640 medium; fetal bovine serum; penicillin/streptomycin antibiotics purchased from Wisent; CellTiter-Glo (chemiluminescence detection reagent for cell viability) reagent purchased from Promega; OVCAR3 cell line purchased from Nanjing Cobioer Biosciences Co., Ltd.; Nivo multimode microplate reader (PerkinElmer),
OVCAR3 cells were seeded into a white 96-well plate, with 80 μL of cell suspension containing 2000 OVCAR3 cells added to each well. The cell plate was incubated in a CO2 incubator overnight.
A test compound was 5-fold diluted to the 8th concentration (i.e., from 2 mM to […]) using a multichannel pipette, with duplicate wells set up. To an intermediate plate was added 78 μL of medium, and the serially diluted compound was transferred to the corresponding wells of the intermediate plate at 2 μL/well. The mixture was mixed well and then transferred to the cell plate at 20 μL/well. The concentration of the compound transferred to the cell plate ranged from 10 μM to 0.026 nM. The cell plate was incubated in a CO2 incubator for 7 days. Another cell plate was prepared and read for signal values on the day of compound addition, and these values were used as the maximum values (the Max value in the equation below) in data analysis. To this cell plate was added the chemiluminescence detection reagent for cell viability at 25 μL/well, and the luminescence signals were stabilized by incubation at room temperature for 10 min. Readings were taken using the multimode microplate reader.
To the cell plate was added the chemiluminescence detection reagent for cell viability at 25 μL/well, and the luminescence signals were stabilized by incubation at room temperature for 10 mm. Readings were taken using the multimode microplate reader, […]

[2] = test system: OVCAR3 cells; test: Detection of cell proliferation activity by CCK8 method (OVCAR3); assay type: cell-based
Description: as §1
(§2) McCoy's 5A medium purchased from Sangon Biotech; CCK8 kit purchased from Beyotime; OVCAR3, HT-29, HCT-116, and BT-549 cells purchased from Shanghai Fuheng Biotechnology Co., Ltd.; multimode microplate reader (Thermo).
(§3) Cells at the logarithmic growth phase were taken, digested with a cell lysis buffer (trypsin), centrifuged, counted, and seeded into a 96-well plate at an appropriate cell density (BT549: 1500 cells/well in 1640 medium. HT-29 and HCT-116: 2000 cells/well in McCoy's 5A medium), with 180 μL per well, for a total of 60 wells. The surrounding wells were filled with an equal amount of PBS to prevent water evaporation from the edge wells. The next day after cell plating, the test compounds at different concentration gradients (with an initial final concentration of 10 μM, diluted in a 1:5 gradient to obtain 9 concentration gradients) were added to the wells. Three replicate wells were set up for each concentration point, and a corresponding DMSO negative control group was also set up. Detection: After 96 h of drug treatment, the test cell culture plate was removed from the incubator. All the liquid in the 96-well plate was aspirated, and 100 μL of medium containing 10% CCK8 solution was added to each well. The plate was then incubated at 37° C. for 2 h (the OD450 of the DMSO group reached 1.5 or more), and the absorbance at 450 nm was measured using a microplate reader
(§4) After the background value was subtracted from the measurement for each well, the inhibition rate was calculated. Inhibition Rate (%)=(1−Sample/Vehicle)×100. Sample is the luminescence value of the drug treatment group, and Vehicle is the luminescence value of the DMSO control group. A sigmoidal dose-survival rate curve was plotted using a non-linear regression model in the GraphPad Prism 7.0 software, and the IC50 values were calculated.

[3] = test system: BT-549 cells; test: Detection of cell proliferation activity by CCK8 method (BT-549); assay type: cell-based; details: CCK8, 96 h
Description: as §1, §2, §3, §4

[4] = test system: HT-29 cells; test: Mitotic index analysis, pH3 expression in HT-29 cells; assay type: cell-based, human; details: Homo sapiens, 24 h treatment
Experimental: (§5) HCT-116 and HT-29 cells at the logarithmic growth phase were taken, digested with a cell lysis buffer (trypsin), centrifuged, counted, and seeded into a 96-well plate at an appropriate cell density (20000 cells/well), with 100 μL per well. The surrounding wells were filled with an appropriate amount of PBS to prevent water evaporation. The next day, the cells were treated with the compounds at different concentrations (with a starting concentration of 10 μM, 3-fold diluted to obtain 9 concentration gradients). After 24 h, the medium was aspirated, and the cells were washed twice with 100 μL of PBS. The cells were then fixed with 4% paraformaldehyde and incubated at room temperature for 15 min. The fixative solution was discarded, and the cells were washed with PBS. Then, 150 μL of specialized blocking solution (containing 1% Triton-100) was added to each well for blocking at room temperature for 2 h, and the plate was washed with PBS to remove excess blocking solution. Anti-phistone H3 (pH3) was diluted at a ratio of 1:1000 with a blocking solution containing 0.033% Triton-100, and a blank control group was set up. Then, incubation was performed at 4° C. overnight. The next day, the plate was washed twice with 1×PBST. Anti-rabbit-IgG (H+L) (CST) and DRAQ5 (Thermofisher) were each diluted at an appropriate ratio with a blocking solution containing 0.033% Triton-100 (secondary antibody: 1:2000; DRAQ5: 1:10000). Then, incubation was performed at room temperature for 2 h. The plate was washed twice with 1×PBST and once with PBS. Fluorescence signals at 700 nm and 800 nm were detected using a Li—COR Odyssey two-color near-infrared laser imager. Calculation was performed as follows: pH3 expression (%)=(Cmpd dose/DMSO control)×100. Cmpd dose is the value of the drug treatment group, and DMSO control is the value of the DMSO control group. The EC50 values were determined by fitting using the GraphPad Prism 7.0 software.

[5] = test system: HT-29 cells; test: Detection of cell proliferation activity by CCK8 method (HT-29); assay type: cell-based, human; details: Homo sapiens, CCK8, 96 h
Description: as §1, §2, §3, §4

[6] = Pharmacokinetic test in mice; assay type: in vivo; details: BALB/c mice; for AUC / Cmax / half-life: mouse, plasma; for half-life: read-out: t½ (converted)
Experimental: In this example, the pharmacokinetic behavior of the compounds after intravenous injection (IV) and intragastric (PO) administration in BALB/c mice was tested.
On the day of administration, mice were weighed for actual body weight and the administration volume was calculated. Each compound was tested in two groups with 9 mice in each group; one group was subjected to administration by single intravenous injection, and the other group of mice was subjected to single intragastric administration. Whole blood samples were collected via the orbit at prescribed time points (0.25 h, 0.5 h, 1 h, 2 h, 4 h, 8 h, and 24 h after administration). After blood sample collection, the samples were immediately transferred to labeled commercial sample tubes containing K2-EDTA (0.85-1.15 mg), followed by centrifugation (3200×g, 4° C., 10 min) and plasma collection. The plasma was transferred to a pre-cooled centrifuge tube, frozen in dry ice, and then stored in an ultra-low temperature freezer at −60° C. or lower until the LC-MS/MS analysis.
Plasma concentrations were determined by the LC-MS/MS method. Plasma drug concentration data for the compounds were processed using a non-compartmental model in the WinNonlin Version 6.3 (Pharsight, Mountain View, CA) pharmacokinetic software. The relevant pharmacokinetic parameters were calculated by a linear-log trapezoidal method.

[7] = test system: HCT-116 cells; test: Detection of cell proliferation activity by CCK8 method (HCT-116); assay type: cell-based; details: CCK8, 96 h
Description: as §1, §2, §3, §4

[8] = test system: HCT-116 cells; test: Mitotic index analysis, pH3 expression in HCT-116 cells; assay type: cell-based; details: 24 h treatment
Experimental: as §5

[9] = target: KIF18A (Homo sapiens (Human), UniProt Q8NI77); test: KIF18A enzymatic activity inhibition, ADP-Glo kit; assay type: biochemical; details: 4 nM KIF18A, 30 μM ATP
Experimental: In this experiment, an ADP-Glo kit was used to detect the inhibitory activity of the compounds against KIF18A. Each compound was prepared into a 10 mM stock solution with DMSO, which was then diluted at 1:5 to obtain 9 gradients with the initial final concentration set at 10 μM. Meanwhile, a control group and a blank group were also set up. The reaction buffer consisted of 15 mM Tris (pH 7.5), 10 mM MgCl2, and 0.01% Pluronic F-68. 4 nM KIF18A (1467) and the test compound were added to a 384-well plate and incubated at 37° C. for 20 mm. Then, 30 μM ATP was added to initiate the enzymatic reaction, and the plate was incubated at room temperature for 15 min. Finally, the ADP-Glo reagent was added to detect the luminescence intensity, where the luminescence intensity is directly proportional to the ADP content. Inhibition rate (%)=[…]. Sample signal is the value of the compound group, and DMSO signal is the value of the DMSO control group. Then, the inhibition rate at each concentration was calculated, and the IC50 was determined by fitting using the GraphPadPrism 7.0 software.

[10] = Homo sapiens, OVCAR-3, CCK8, 96 h

KIF18A, sequence (Q8NI77 1-467): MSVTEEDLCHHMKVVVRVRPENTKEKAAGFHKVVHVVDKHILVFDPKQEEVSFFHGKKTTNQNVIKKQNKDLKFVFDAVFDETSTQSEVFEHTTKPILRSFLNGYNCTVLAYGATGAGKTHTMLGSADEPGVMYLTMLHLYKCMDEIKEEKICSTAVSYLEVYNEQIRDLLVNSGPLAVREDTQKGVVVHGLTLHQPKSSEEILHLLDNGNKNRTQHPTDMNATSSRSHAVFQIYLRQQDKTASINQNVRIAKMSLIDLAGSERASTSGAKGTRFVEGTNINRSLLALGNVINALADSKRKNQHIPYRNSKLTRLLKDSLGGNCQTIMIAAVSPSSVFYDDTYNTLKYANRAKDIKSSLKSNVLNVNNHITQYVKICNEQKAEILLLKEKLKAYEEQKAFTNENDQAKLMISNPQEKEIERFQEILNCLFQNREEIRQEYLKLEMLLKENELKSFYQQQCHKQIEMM

SMILES | IC50 [1] | IC50 [2, 10] | IC50 ([3]; Homo sapiens) | EC50 [4] | IC50 [5] | IC50 ([7]; Homo sapiens) | EC50 ([8]; Homo sapiens) | further results
O=C(Nc1nc(N2CCC(F)(F)CC2)nc2ccccc12)c1ccc(NS(=O)(=O)CCO)cc1N1CCC2(CC1)CC2 [Compound 2] | 5220 nM |  |  |  |  |  |  | 
CS(=O)(=O)Nc1ccc(C(=O)Nc2cn3ncnc3c(N3CCC(F)(F)CC3)n2)c(N2CC3CCC(C3)C2)c1 [Compound 53] |  | 32.8 nM | 170 nM | 26.7 nM | 44.7 nM | > 10000 nM | > 10000 nM | F ([6]; PO @30mpk): 16%; AUC ([6]; 30 mg/kg, PO @30mpk): 78.3 µM·h; Cmax ([6]; 30 mg/kg, PO @30mpk): 4.56 µM; half-life ([6]; 30 mg/kg, PO @30mpk): 13 h
CS(=O)(=O)Nc1ccc(C(=O)Nc2cc3cccnc3c(N3CCC(F)(F)CC3)n2)c(N2CCC3(CC2)CC3)c1 [Compound 32] | 29.9 nM | 22.4 nM | 46.1 nM | 61.8 nM | 45.3 nM | > 10000 nM | > 10000 nM | 
O=C(Nc1cn2c(F)cnc2c(N2CCC(F)(F)CC2)n1)c1ccc(NS(=O)(=O)CCO)cc1N1CC2CCC(C2)C1 [Compound 51] |  | 26.1 nM | 54.7 nM | 13.7 nM | 35.7 nM | > 10000 nM | > 10000 nM | F ([6]; PO @30mpk): 67%; AUC ([6]; 30 mg/kg, PO @30mpk): 272 µM·h; Cmax ([6]; 30 mg/kg, PO @30mpk): 14.2 µM; half-life ([6]; 30 mg/kg, PO @30mpk): 62.3 h
O=C(Nc1cc2nccn2c(N2CCC(F)(F)CC2)n1)c1ccc(NS(=O)(=O)CCO)cc1N1CCC2(CC1)CC2 [Compound 16] | 53 nM |  | 192 nM | 94 nM | 338 nM | > 10000 nM | > 10000 nM | 
O=C(Nc1cn2ccnc2c(N2CCC(F)(F)CC2)n1)c1ncc(NS(=O)(=O)CCO)cc1N1CCC2(CC1)CC2 [Compound 37] |  |  |  |  |  |  |  | IC50 ([2]; CCK8, 96 h): 234 nM; IC50 [3]: 611 nM; IC50 [7]: > 10000 nM; EC50 [8]: > 10000 nM; IC50 [9]: 11.3 nM
O=C(Nc1cn2ccnc2c(N2CC3CCC(C3)C2)n1)c1ccc(NS(=O)(=O)CCO)cc1N1CCC2(CC1)CC2 [Compound 30] | 64.2 nM | 30.4 nM | 105 nM | 47.6 nM | 73.9 nM | > 10000 nM | > 10000 nM | 
CS(=O)(=O)Nc1ccc(C(=O)Nc2cc3nccnc3c(N3CCC(F)(F)CC3)n2)c(N2CC3CCC(C3)C2)c1 [Compound 72] |  | 66.6 nM | 330 nM | 72.4 nM | 141 nM | > 10000 nM | > 10000 nM | F ([6]; PO @5mpk): 175%; AUC ([6]; 5 mg/kg, PO @5mpk): 66.3 µM·h; Cmax ([6]; 5 mg/kg, PO @5mpk): 5.34 µM; half-life ([6]; 5 mg/kg, PO @5mpk): 6 h
O=C(Nc1cn2ccnc2c(N2CCC3(CC2)CC3)n1)c1ccc(NS(=O)(=O)CCO)cc1N1CCC2(CC1)CC2 [Compound 31] | 67.6 nM | 41.8 nM | 111 nM | 64 nM | 93.8 nM | > 10000 nM | > 10000 nM | 
O=C(Nc1cc2ccccc2c(N2CCC(F)(F)CC2)n1)c1ccc(NS(=O)(=O)CCO)cc1N1CC2CCC(C2)C1 [Compound 9] | 122 nM |  |  |  |  |  |  | 
Cn1ncc2cc(NC(=O)c3ccc(NS(=O)(=O)CCO)cc3N3CC4CCC(C4)C3)nc(N3CCC(F)(F)CC3)c21 [Compound 55] |  | 6.8 nM | 54.4 nM | 4.6 nM | 12.7 nM | > 10000 nM | > 10000 nM | F ([6]; PO @30mpk): 109%; AUC ([6]; 30 mg/kg, PO @30mpk): 380 µM·h; Cmax ([6]; 30 mg/kg, PO @30mpk): 25.8 µM; half-life ([6]; 30 mg/kg, PO @30mpk): 7.8 h
Cc1cc(NC(=O)c2ccc(NS(=O)(=O)CCO)cc2N2CC3CC(C3)C2)nc(N2CCC(F)(F)CC2)n1 [Compound 4] | 186 nM |  |  |  |  |  |  | 
Cc1cc2nc(NC(=O)c3ccc(NS(=O)(=O)CCO)cc3N3CCC4(CC3)CC4)nc(N3CCC(F)(F)CC3)c2s1 [Compound 7] | 2010 nM |  |  |  |  |  |  | 
O=C(Nc1csc(C2CCC(F)(F)CC2)n1)c1ccc(NS(=O)(=O)CCO)cc1N1CCC2(CC1)CC2 [Compound 1] | 167 nM |  |  |  |  |  |  | 
CS(=O)(=O)Nc1ccc(C(=O)Nc2cc3cccnc3c(N3CCC(F)(F)CC3)n2)c(N2CC3CCC(C3)C2)c1 [Compound 33] | 75 nM | 53.3 nM | 118 nM | 58.5 nM | 84.2 nM | > 10000 nM | > 10000 nM | F ([6]; PO @30mpk): 108%; AUC ([6]; 30 mg/kg, PO @30mpk): 126 µM·h; Cmax ([6]; 30 mg/kg, PO @30mpk): 6.31 µM; half-life ([6]; 30 mg/kg, PO @30mpk): 134 h
